Assay results published in patent publication US7465815B2, “Cannabinoid receptor modulator” (priority 2003, dated 2008).
Read-outs that look alike come from different tables or passages of the source.

Columns and labels:
[1] = biological target: T1, human CB1 receptor (Homo sapiens, UniProt P21554); assay: [3H]-CP55,940 binding inhibition assay, CHO cell membrane fraction expressing human CB1 receptor
T1 construct: expressed in transfected cells; host or cells: CHO cells (membrane fraction)
Procedure: (§1) [^3H]-CP55,940 binding assay with a cell membrane fraction expressing human CB1 and CB2 receptor
(§2) [^3H]-CP55940 binding inhibition assay was conducted by incubating a CHO cell membrane fraction expressing human CB1 receptor and the test compound and 500 pM [^3H]-CP55940 in reaction buffer (50 mM Tris-HCl (pH7.4), 5 mM MgCl2, 2.5 mM EDTA and 0.5% BSA (fatty acid free)) at room temperature for 60 minutes. The reaction solution was filtered through GF/C filter, washed with 300 μl of washing buffer (50 mM Tris-HCl (pH7.4), 0.05% BSA (fatty acid free)) four times, and the radioactivity of the filter was measured with a Top Count scintillation counter (Packard). As results, the test compound has inhibited binding of [^3H]-CP55940 to the membrane fraction dose-dependently.
(§3) The inhibitory activity of the test compound to [^3H]-CP55940 binding was calculated by percent on the basis that radioactivity is 100% when only 500 pM [^3H]-CP55940 was added, and 0% when 500 pM [^3H]-CP55940 and 100 nM CP55940 were added at the same time. Further, IC50 value of the test compound was calculated by analyzing concentrations and percents of the test compound with PRISM 3.0 (Graphpad Software, Inc.).

[2] = biological target: T2, human CB2 receptor (Homo sapiens, UniProt P34972); assay: [3H]-CP55,940 binding inhibition assay, CHO cell membrane fraction expressing human CB2 receptor
T2 construct: expressed in transfected cells; host or cells: CHO cells (membrane fraction)
T2 sequence (P34972 whole entry): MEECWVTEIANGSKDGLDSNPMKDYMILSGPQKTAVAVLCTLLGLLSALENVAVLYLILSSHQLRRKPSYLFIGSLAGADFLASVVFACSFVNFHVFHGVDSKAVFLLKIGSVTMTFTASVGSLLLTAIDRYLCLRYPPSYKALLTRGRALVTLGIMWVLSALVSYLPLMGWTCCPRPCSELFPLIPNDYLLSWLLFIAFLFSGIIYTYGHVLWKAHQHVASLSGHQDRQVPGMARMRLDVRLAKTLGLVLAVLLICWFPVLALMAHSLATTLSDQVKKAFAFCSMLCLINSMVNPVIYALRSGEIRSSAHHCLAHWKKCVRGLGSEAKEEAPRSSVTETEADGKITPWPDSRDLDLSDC
Procedure: as §1, §2, §3
The same assay was also conducted for a CHO cell membrane fraction expressing human CB2 receptor, and the inhibitory activity to [^3H]-CP55940 binding was calculated.

[3] = biological target: T3, CB1 receptor (Mus musculus, UniProt P47746); assay: Body temperature-lowering action on mouse (CB1 receptor agonistic activity in vivo); conditions: Jcl: ICR male mice, 1 mg/kg i.p., rectal temperature 30 minutes after administration, compared with control group
T3 construct: from tissue; host or cells: whole animal, Jcl: ICR male mice
T3 sequence (P47746 whole entry): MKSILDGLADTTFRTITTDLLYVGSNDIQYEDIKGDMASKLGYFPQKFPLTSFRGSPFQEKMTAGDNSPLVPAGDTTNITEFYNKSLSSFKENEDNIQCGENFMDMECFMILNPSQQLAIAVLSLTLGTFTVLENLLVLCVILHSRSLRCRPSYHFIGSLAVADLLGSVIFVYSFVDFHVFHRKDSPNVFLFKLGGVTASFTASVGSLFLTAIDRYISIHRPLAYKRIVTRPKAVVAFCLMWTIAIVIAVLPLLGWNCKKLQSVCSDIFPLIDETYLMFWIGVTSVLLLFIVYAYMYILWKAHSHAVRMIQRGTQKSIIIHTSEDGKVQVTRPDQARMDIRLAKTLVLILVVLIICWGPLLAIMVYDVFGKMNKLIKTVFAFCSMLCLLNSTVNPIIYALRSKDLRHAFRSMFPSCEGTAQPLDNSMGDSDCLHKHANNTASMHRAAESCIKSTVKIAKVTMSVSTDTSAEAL
Procedure: Body temperature-lowering action on mouse
CB1 receptor agonistic activity of the compound of the present invention in vivo was evaluated by investigating the effect on the body temperature of mouse after the drug was administered to the mouse. In this experiment, Jcl: ICR male mice (5 weeks old) were used. After measuring the rectal temperature with a thermometer (Physitemp BAT-12) that was connected to a probe for measuring body temperature, the compound dissolved in 2.2% EtOH and 5% G2-β-cyclodextrin (solvent) was administered intraperitoneally. Solvent only was administered to the control group. 30 minutes after administration, rectal temperature was measured again. The experiment was conducted for 4 subjects per a group.

T1 sequence (P21554 whole entry): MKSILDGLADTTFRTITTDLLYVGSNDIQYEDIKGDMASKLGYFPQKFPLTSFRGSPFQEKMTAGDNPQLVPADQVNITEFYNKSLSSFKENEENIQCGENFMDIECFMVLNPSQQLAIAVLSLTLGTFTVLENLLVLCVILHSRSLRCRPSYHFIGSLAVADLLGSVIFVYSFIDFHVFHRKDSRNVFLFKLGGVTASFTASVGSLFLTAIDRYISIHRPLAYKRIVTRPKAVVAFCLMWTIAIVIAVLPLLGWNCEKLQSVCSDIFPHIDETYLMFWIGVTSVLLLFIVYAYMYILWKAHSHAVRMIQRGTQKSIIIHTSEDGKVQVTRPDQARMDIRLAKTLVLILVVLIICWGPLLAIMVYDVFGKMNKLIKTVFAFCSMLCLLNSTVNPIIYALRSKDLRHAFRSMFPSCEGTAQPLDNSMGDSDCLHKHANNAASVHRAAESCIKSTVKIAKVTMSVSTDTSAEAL

Question: With `Cc1ccc(C)c2c1OC(=O)C2c1ccc(C(C)C)cc1` (stereo not drawn) [Reference Example 230] as the compound, how does the IC50 [1] read?
Answer: 55 nM

Question: What about the IC50 [2] of the same compound?
Answer: 55 nM

Question: `Cc1c(C)c2c(c(C)c1NC(=O)NC(C)(C)C)C(c1ccc(C(C)C)cc1)CO2` (stereo not drawn) [Example 14, N-(tert-Butyl)-N′-(3-(4-isopropylphenyl)-4,6,7-trimethyl-2,3-dihydro-1-benzofuran-5-yl)urea] was tested. Which “Test Results (body temperature-lowering action)” value [3] did it give?
Answer: Effective (estimated as effective if the compound of the present invention lowered the body temperature substantially by 1 °C or more when compared with the control group 30 minutes after administration of 1 mg/kg, i.p.)

Question: And the IC50 [1]?
Answer: 20 nM

Question: And the IC50 [2]?
Answer: < 10 nM

Question: With `CCOC(=O)C(C)(C)Oc1cc(C)cc(C)c1Cc1ccc(C(C)C)cc1` [Reference Example 153] as the compound, how does the IC50 ([1]; 500 pM [3H]-CP55940, CHO cell membrane fraction expressing human CB1 receptor, room temperature, 60 minutes, read-out: CB1 IC50 value) read?
Answer: 110 nM

Question: And the IC50 ([2]; 500 pM [3H]-CP55940, CHO cell membrane fraction expressing human CB2 receptor, read-out: CB2 IC50 value)?
Answer: 560 nM

Question: For `COc1c(C)c(NC(=O)CC(C)(C)C)c(C)c2c1OCC2c1ccc(C(C)C)cc1` (stereo not drawn) [Example 36, N-(3-(4-Isopropylphenyl)-7-methoxy-4,6-dimethyl-2,3-dihydro-1-benzofuran-5-yl)-3,3-dimethylbutanamide], which “Test Results (body temperature-lowering action)” value [3] is on record?
Answer: Effective (estimated as effective if the compound of the present invention lowered the body temperature substantially by 1 °C or more when compared with the control group 30 minutes after administration of 1 mg/kg, i.p.)

Question: What about the IC50 [1] of the same compound?
Answer: < 10 nM

Question: And the IC50 [2]?
Answer: < 10 nM

Question: With `CC(=O)c1c(C)c(NC(=O)CC(C)(C)C)c(C)c2c1OCC2c1ccc(C(C)C)cc1` (stereo not drawn) [Example 32, N-(7-Acetyl-3-(4-isopropylphenyl)-4,6-dimethyl-2,3-dihydro-1-benzofuran-5-yl)-3,3-dimethylbutanamide] as the compound, how does the “Test Results (body temperature-lowering action)” value [3] read?
Answer: Effective (estimated as effective if the compound of the present invention lowered the body temperature substantially by 1 °C or more when compared with the control group 30 minutes after administration of 1 mg/kg, i.p.)

Question: And the IC50 [1]?
Answer: < 10 nM

Question: And the IC50 [2]?
Answer: < 10 nM

Question: `CCc1c(C)c(NC(=O)CC(C)(C)C)c(C)c2c1OCC2c1ccc(C(C)C)cc1` (stereo not drawn) [Example 23, N-(7-Ethyl-3-(4-isopropylphenyl)-4,6-dimethyl-2,3-dihydro-1-benzofuran-5-yl)-3,3-dimethylbutanamide] was tested. Which “Test Results (body temperature-lowering action)” value [3] did it give?
Answer: Effective (estimated as effective if the compound of the present invention lowered the body temperature substantially by 1 °C or more when compared with the control group 30 minutes after administration of 1 mg/kg, i.p.)

Question: And the IC50 [1]?
Answer: < 10 nM

Question: What about the IC50 [2] of the same compound?
Answer: < 10 nM

Question: Which “Test Results (body temperature-lowering action)” value [3] does the source give for `Cc1c(C)c2c(c(C)c1NC(=O)CC(C)(C)C)C(c1ccc(C(C)C)cc1)CO2` (stereo not drawn) [Example 1, N-(3-(4-Isopropylphenyl)-4,6,7-trimethyl-2,3-dihydro-1-benzofuran-5-yl)-3,3-dimethylbutanamide] here?
Answer: Effective (estimated as effective if the compound of the present invention lowered the body temperature substantially by 1 °C or more when compared with the control group 30 minutes after administration of 1 mg/kg, i.p.)

Question: What about the IC50 [1] of the same compound?
Answer: 20 nM

Question: What about the IC50 [2] of the same compound?
Answer: < 10 nM

Question: How did the “Test Results (body temperature-lowering action)” value [3] turn out when `Cc1c(Br)c2c(c(C)c1NC(=O)CC(C)(C)C)C(c1ccc(C(C)C)cc1)CO2` (stereo not drawn) [Example 35, N-(7-Bromo-3-(4-isopropylphenyl)-4,6-dimethyl-2,3-dihydro-1-benzofuran-5-yl)-3,3-dimethylbutanamide] was run?
Answer: Effective (estimated as effective if the compound of the present invention lowered the body temperature substantially by 1 °C or more when compared with the control group 30 minutes after administration of 1 mg/kg, i.p.)

Question: What about the IC50 [1] of the same compound?
Answer: < 10 nM

Question: What about the IC50 [2] of the same compound?
Answer: < 10 nM

Question: `Cc1c(NC(=O)CC(C)(C)C)c(C)c2c(c1C(C)O)OCC2c1ccc(C(C)C)cc1` (stereo not drawn) [Example 22, N-(7-(1-Hydroxyethyl)-3-(4-isopropylphenyl)-4,6-dimethyl-2,3-dihydro-1-benzofuran-5-yl)-3,3-dimethylbutanamide] was tested. Which “Test Results (body temperature-lowering action)” value [3] did it give?
Answer: Effective (estimated as effective if the compound of the present invention lowered the body temperature substantially by 1 °C or more when compared with the control group 30 minutes after administration of 1 mg/kg, i.p.)

Question: And the IC50 [1]?
Answer: 11 nM

Question: And the IC50 [2]?
Answer: < 10 nM

Question: Which results are given for `CCCc1c(C)c(NC(=O)CC(C)(C)C)c(C)c2c1OCC2c1ccc(C(C)C)cc1` (stereo not drawn) [Example 34, N-(3-(4-Isopropylphenyl)-4,6-dimethyl-7-propyl-2,3-dihydro-1-benzofuran-5-yl)-3,3-dimethylbutanamide]?
Answer: Test Results (body temperature-lowering action) [3]: Effective (estimated as effective if the compound of the present invention lowered the body temperature substantially by 1 °C or more when compared with the control group 30 minutes after administration of 1 mg/kg, i.p.); IC50 [1]: < 10 nM; IC50 [2]: < 10 nM

Question: With `CCC(O)c1c(C)c(NC(=O)CC(C)(C)C)c(C)c2c1OCC2c1ccc(C(C)C)cc1` (single isomer, unassigned) [Example 31, N-(7-(1-Hydroxypropyl)-3-(4-isopropylphenyl)-4,6-dimethyl-2,3-dihydro-1-benzofuran-5-yl)-3,3-dimethylbutanamide] as the compound, how does the “Test Results (body temperature-lowering action)” value [3] read?
Answer: Effective (estimated as effective if the compound of the present invention lowered the body temperature substantially by 1 °C or more when compared with the control group 30 minutes after administration of 1 mg/kg, i.p.)

Question: And the IC50 [1]?
Answer: < 10 nM

Question: And the IC50 [2]?
Answer: < 10 nM

Question: For `CCC(=O)Nc1c(C)c(C)c2c(c1C)C(c1ccc(C(C)C)cc1)CO2` (stereo not drawn) [Example 9, N-(3-(4-Isopropylphenyl)-4,6,7-trimethyl-2,3-dihydro-1-benzofuran-5-yl)propionamide], which IC50 [1] is on record?
Answer: 79 nM

Question: What about the IC50 [2] of the same compound?
Answer: 11 nM

Question: How did the “Test Results (body temperature-lowering action)” value [3] turn out when `Cc1c(NC(=O)CC(C)(C)C)c(C)c2c(c1C(C)O)OCC2c1ccc(C(C)C)cc1` (single isomer, unassigned) [Example 29, N-(7-(1-Hydroxyethyl)-3-(4-isopropylphenyl)-4,6-dimethyl-2,3-dihydro-1-benzofuran-5-yl)-3,3-dimethylbutanamide] was run?
Answer: Effective (estimated as effective if the compound of the present invention lowered the body temperature substantially by 1 °C or more when compared with the control group 30 minutes after administration of 1 mg/kg, i.p.)

Question: And the IC50 ([1]; read-out: CB1 IC50 value, 500 pM [3H]-CP55940, CHO cell membrane fraction expressing human CB1 receptor, room temperature, 60 minutes)?
Answer: < 10 nM

Question: And the IC50 ([2]; read-out: CB2 IC50 value, 500 pM [3H]-CP55940, CHO cell membrane fraction expressing human CB2 receptor)?
Answer: < 10 nM

Question: Which results are given for `Cc1c(NC(=O)CC(C)(C)C)c(C)c2c(c1C(C)O)OCC2c1ccc(C(C)C)cc1` (single isomer, unassigned) [Example 28, N-(7-(1-Hydroxyethyl)-3-(4-isopropylphenyl)-4,6-dimethyl-2,3-dihydro-1-benzofuran-5-yl)-3,3-dimethylbutanamide]?
Answer: Test Results (body temperature-lowering action) [3]: Effective (estimated as effective if the compound of the present invention lowered the body temperature substantially by 1 °C or more when compared with the control group 30 minutes after administration of 1 mg/kg, i.p.); IC50 [1]: < 10 nM; IC50 [2]: < 10 nM

Question: How did the IC50 [1] turn out when `Cc1c(C)c(C(CO)c2ccc(C(C)C)cc2)c(O)c(C)c1Br` (stereo not drawn) [Reference Example 234] was run?
Answer: 40 nM

Question: What about the IC50 [2] of the same compound?
Answer: 31 nM

Question: With `Cc1c(NC(=O)CC(C)(C)C)c(C)c(C(C)(C)O)c2c1C(c1ccc(C(C)C)cc1)CO2` (stereo not drawn) [Example 33, N-(7-(1-Hydroxy-1-methylethyl)-3-(4-isopropylphenyl)-4,6-dimethyl-2,3-dihydro-1-benzofuran-5-yl)-3,3-dimethylbutanamide] as the compound, how does the “Test Results (body temperature-lowering action)” value [3] read?
Answer: Effective (estimated as effective if the compound of the present invention lowered the body temperature substantially by 1 °C or more when compared with the control group 30 minutes after administration of 1 mg/kg, i.p.)

Question: And the IC50 [1]?
Answer: 14 nM

Question: What about the IC50 [2] of the same compound?
Answer: < 10 nM

Question: Which results are given for `Cc1ccc(C)c(C(CO)c2ccc(C(C)C)cc2)c1O` (stereo not drawn) [Reference Example 233]?
Answer: IC50 [1]: 38 nM; IC50 [2]: 47 nM

Question: For `Cc1c(C)c2c(c(C)c1NC(=O)CC(C)(C)C)[C@@H](c1ccc(C(C)C)cc1)CO2` [Example 7, (+)-N-((3R)-3-(4-Isopropylphenyl)-4,6,7-trimethyl-2,3-dihydro-1-benzofuran-5-yl)-3,3-dimethylbutanamide], which “Test Results (body temperature-lowering action)” value [3] is on record?
Answer: Effective (estimated as effective if the compound of the present invention lowered the body temperature substantially by 1 °C or more when compared with the control group 30 minutes after administration of 1 mg/kg, i.p.)

Question: And the IC50 [1]?
Answer: < 10 nM

Question: What about the IC50 [2] of the same compound?
Answer: < 10 nM

Question: Which IC50 [1] does the source give for `Cc1cc(C)c2c(c1)SCC2c1ccc(C(C)C)cc1` (stereo not drawn) [Reference Example 212] here?
Answer: 69 nM

Question: And the IC50 [2]?
Answer: < 10 nM
